From patent US9707239B2, “Compounds that modulate oxidative stress” (vTv Therapeutics LLC, priority 2011, dated 2017)
“Also recorded” adds a separate entry of the source.

Key:
Assay type in all cases: cell-based, human
[1] = tested on: Nrf2; test: HMOX1 mRNA induction after Nrf2 siRNA silencing; details: NHLF cells, 50 nM siRNA 48 hours, FIG. 5
Protocol: Small interfering RNA targeting Nrf-2 (cat# SI03246614) or KEAP-1 (cat# SI03246439) were obtained from Qiagen at 20 nmol/tube. Negative control siRNA (cat#1027280) was also obtained from Qiagen. Lyophilized siRNA in each tube was resuspended with 1 ml of the provided siRNA Suspension Buffer to make a stock solution of 20 μM and tubes were heated at 90° C. for one minute and then at 37° C. for one hour prior to initial use.
Normal human lung fibroblasts were plated at 5000 cells/well in 96-well plates and allowed to attach. Prior to experiments, well s containing the cells were refreshed with 30 μl of complete growth medium. For each siRNA type, a 4× concentration (200 nM) of siRNA was prepared by adding 11 μl of siRNA stock into 1.1 ml of serum-free medium containing 9 μl/ml of SILENTFECT Lipid Reagent (BioRad, cat#170-3361). This solution was incubated at room temperature for 20 minutes prior to adding 10 μl into each well for a final concentration of 50 nM siRNA. Cells were incubated with siRNA for 48 hours, after which they were treated with compound for either 5 hours (QuantiGene RNA assay) or 15 hours (protein immunofluorescence assay).
The predicted response profile is that silencing of Nrf2 should reduce the amount of HMOX1 induction by Compound 13 and other HMOX1 inducers that are electrophiles or reactive compounds. To that end, Compound 13 and other tool compounds were tested in cells that were treated with siRNA directed to Nrf2. Following gene silencing with specific siRNA or control siRNA, the ability of tool compounds to induce HMOX1 mRNA was determined.

[2] = tested on: HSPA6; test: mRNA expression (Quantigene Plex) in NHLF cells: HSPA6; details: Table 5, 6 h, mRNA normalized to GAPDH, above DMSO treated cells
Protocol: (§1) Secondary growth of NHLF cells were used for all assays. Cell were thawed and then placed into culture in T225 flasks. The cells were grown to 80% confluency and harvested by washing once with HEPES buffered saline solution and then trypsinizing. Equal numbers (7×10^3 cells per well) of NHLF cells were plated in 96 well tissue culture plates (Corning). Cells were incubated overnight in FGM-2 medium prior to exposure to compound. Cells were treated with either DMSO or a compound as described below for 6 h. Preparation of cell lysates was carried out according to instructions using the Quantigene Reagent system 2.0 protocol (Panomics). mRNA induction was detected from cell lysate using the Quantigene Plex 2.0 Assay Kit (Panomics) on the Luminex platform (BIO-RAD). Expression of GAPDH mRNA was used as the internal control for the Quantigen Plex 2.0 Assay. The data in Tables 5 and 6 represents the fold change of target mRNA expression, normalized to control values, above DMSO treated cells.

[3] = tested on: TXNRD1; test: mRNA expression (Quantigene Plex) in NHLF cells: TXNRD1; details: Table 5, 6 h, mRNA normalized to GAPDH, above DMSO treated cells
Protocol: as §1

[4] = tested on: NHLF cells; test: ROS measurements (H2DCF-DA imaging); details: 1 hr, cell-by-cell imaging, FIG. 3A/3B
How it was run: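 Secondary-passage NHLF cells (2,000/well, overnight) loaded 30 min with H2DCF-DA, 10 μM ferric ammonium citrate and Hoechst, washed, then treated with compound in FBM-2 medium 1 h at 37 °C, 5% CO2. ROS quantified by automated fluorescence imaging of DCF signal.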

[5] = tested on: ICAM; test: mRNA expression (Quantigene Plex) in NHLF cells: ICAM; details: Table 5, 6 h, mRNA normalized to GAPDH, above DMSO treated cells
Protocol: as §1

[6] = tested on: HMOX1; test: Effect of NAC on compound induction of HMOX gene expression; details: NHLF cells pretreated with 5 mM NAC 1 hr, compound 6 h, FIG. 4
Protocol: NHLF cells were grown to 80% confluency and harvested by washing once with HEPES and then trypsinizing. Equal numbers (7×10^4 cells per well) of NHLF cells were plated in 96 well tissue culture (Corning) plates. Cells were incubated overnight in FGM-2 medium prior to exposure to compound. Cells were pretreated with 5 mM N-acetyl cysteine for 1 hr. Cells were treated with either DMSO or compound for 6 h. Preparation of cell lysates was carried out according to Quantigene Reagent system 2.0 protocol (Panomics). Heme oxygenase mRNA induction was detected from cell lysate using the Quantigene Plex 2.0 Assay Kit (Panomics) on the Luminex platform (BIO-RAD). Expression of GAPDH mRNA was used as the internal control for the Quantigen Plex 2.0 Assay. Heme oxygenase data represents the fold change, normalized to control values, above DMSO treated cells.
A further test of the hypothesis that Compound 13 induces HMOX1 with minimal alteration of cellular redox levels or chemical reactivity was carried out by treating cells with N-acetyl cysteine (NAC). This compound acts to restore cellular glutathione levels and thus prevent oxidative stress. The degree to which NAC can suppress HMOX1 induction is an indicator of the amount of chemical reactivity or ROS stress that a compound is imposing on the cell and thus activating phase II gene transcription. […] Coupled with the data shown in FIG. 3, it is concluded that Compound 13 induces HMOX1 with minimal elevation of ROS or NAC-sensitive chemical reactivity.

Structure (SMILES): O=C(Nc1ccc2cn[nH]c2c1)c1ccc2[nH]c(Nc3nc4ccccc4s3)nc2c1 [Compound 13, 2-(Benzothiazol-2-ylamino)-1H-benzoimidazole-5-carboxylic acid (1H-indazol-6-yl)-amide]
- HMOX1 mRNA induction with siRNA directed to Nrf2 [1]: affected by the presence of the siRNA for Nrf2; also recorded: requires Nrf2 for full induction of HMOX1 mRNA
- HSPA6 (fold induction) [2]: did not induce
- HSPA6 (fold induction) ([2]; listed as #13): 0.96 fold induction
- TXNRD1 (fold induction) [3]: shown to induce
- TXNRD1 (fold induction) ([3]; listed as #13): 1.5 fold induction
- ROS production (in words) [4]: modestly elevated ROS production; also recorded: little increase in ROS production
- ICAM (fold induction) [5]: nor did it induce
- ICAM (fold induction) ([5]; listed as #13): 1.1 fold induction
- effect of N-acetyl cysteine (NAC) on HMOX1 induction [6]: induces the greatest amount of HMOX1 with the least impact by NAC; also recorded: still induces HMOX1 expression in the presence of NAC
